Measurements as given in patent publication US20250179103A1, “6-OXODECAHYDROPYRROLO[1,2-A][1,5]DIAZOCINE AND 6-OXODECAHYDRO-4H-PYRROLO[2,1-D][1,5]THIAZOCINE DERIVATIVES AS STAT3 AND STAT6 MODULATORS FOR THE TREATMENT OF CANCER AND INFLAMMATORY CONDITIONS” (Recludix Pharma, Inc., priority 2022, published 2025).

Legend:
[1] = test system: pY641-STAT6 in Peripheral Blood Mononuclear Cells (PBMC); assay: MSD-pSTAT-PBMC Assay (pSTAT6, IL-4 stimulated); type: cell-based, Human; details: Homo sapiens, compound 3 hrs, then 1 ng/mL IL-4 for 10 min
From the text: Cryopreserved Peripheral Blood Mononuclear Cells (PBMC) are from AllCells. Recombinant Human IL-4 and IL-6 are from Peprotech. Mouse monoclonal anti-STAT3 antibody, rabbit monoclonal anti-pY705-STAT3 antibody, rabbit monoclonal Anti-pY641-STAT6 antibody, and lysis buffer are from Cell Signaling Technology (CST). Mouse monoclonal anti-STAT6 antibody is from BioLegend. Assay plates, blocker, and anti-rabbit secondary antibody are from Meso Scale Discovery (MSD).
Cryopreserved PBMCs were thawed out and allowed to recover overnight in IMDM+10% heat-inactivated FBS prior to plating 50,000 (STAT3) or 25,000 (STAT6) cells per well in 96-well U-bottom tissue culture plates. Cells were treated with compound for 3 hrs, then stimulated with 10 ng/mL IL-6 (STAT3) or 1 ng/mL IL-4 (STAT6) for 10 min. Cells were then spun down and washed with ice-cold PBS prior to lysing the cell pellet with 1× lysis buffer (CST) with 1×HALT protease and phosphatase inhibitor cocktail (Thermo). Lysates were transferred to and incubated overnight at 4° C. with shaking in QuickPlex 96-well high bind assay plates (MSD) pre-coated overnight with 30 μL per well of 0.6 μg/mL mouse monoclonal anti-STAT3 antibody (STAT3) or 2 μg/mL mouse monoclonal anti-STAT6 antibody (STAT6) in 1×PBS, and pre-blocked for 1 hour with 3% Blocker-A (MSD). Captured protein in the assay plates were then washed and probed with 25 μL per well of 0.25 μg/ml rabbit monoclonal anti-pY705-STAT3 antibody (STAT3) or […] rabbit monoclonal Anti-pY641-STAT6 antibody (STAT6) in 1% Blocker-A for 1 hour at room temperature with shaking, then washed and probed with 25 ul per well of 1 ug/ml Sulfo-TAG Labeled Goat Anti-Rabbit Antibody (MSD) in 1% Blocker-A for 1 hour at room temperature with shaking. Assay plates were then washed and 150 μL of 1× Read Buffer-T (MSD) was added to each well prior to reading on an SQ120 MSD Plate Reader. Assay signal from each sample was subtracted by the signal from unstimulated control wells and normalized to DMSO control wells. IC50 values were calculated using Graph Pad Prism Dose-Response Nonlinear Regression with variable slope. For both pSTAT3 and pSTAT6 A=≤100 nM; B=>100-1000 nM; C=>1000-3000 nM; and D=>3 μM.

[2] = target: T1, Recombinant STAT6 protein (STAT6(W123-T658)) (Homo sapiens, UniProt P42226); assay: STAT6 Fluorescence Polarization (FP) Assay; type: binding; details: STAT6(W123-T658) 250 nM, probe 5-FAM-ApYKPFQDLI-NH2 2 nM, 45-minute incubation
T1 construct: Recombinant STAT6 protein (STAT6(W123-T658))
T1 sequence (P42226 123-658): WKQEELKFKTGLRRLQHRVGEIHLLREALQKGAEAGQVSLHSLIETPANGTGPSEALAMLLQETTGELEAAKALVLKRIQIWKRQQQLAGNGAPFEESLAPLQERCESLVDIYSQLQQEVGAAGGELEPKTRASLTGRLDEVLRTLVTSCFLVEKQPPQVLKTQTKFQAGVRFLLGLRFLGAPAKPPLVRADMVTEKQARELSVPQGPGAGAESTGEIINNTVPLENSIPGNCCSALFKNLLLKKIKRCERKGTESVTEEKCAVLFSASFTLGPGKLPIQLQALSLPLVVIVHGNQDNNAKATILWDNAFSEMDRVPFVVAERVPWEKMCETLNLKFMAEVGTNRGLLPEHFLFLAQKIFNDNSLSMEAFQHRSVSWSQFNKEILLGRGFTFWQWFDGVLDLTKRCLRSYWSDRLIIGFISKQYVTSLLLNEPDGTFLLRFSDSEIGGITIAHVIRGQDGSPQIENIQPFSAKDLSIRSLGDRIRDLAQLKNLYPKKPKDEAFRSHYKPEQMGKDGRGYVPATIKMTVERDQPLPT
In short: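 Displacement of a fluorescent phosphotyrosine peptide (5-FAM-ApYKPFQDLI-NH2, 2 nM) from STAT6(W123-T658) (250 nM), 1% DMSO, pH 7.4 HEPES buffer. After 45 min at room temperature, polarization (mP) was plotted versus log compound concentration and fitted by nonlinear regression to give IC50.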

[3] = target: T2, Recombinant STAT3 protein (STAT3(G127-I722)) (Homo sapiens, UniProt P40763); assay: STAT3 Fluorescence Polarization (FP) Assay; type: binding; details: STAT3(G127-I722) 25 nM, probe 5-FAM-GpYLPQTV-NH2 2 nM, 45-minute incubation
T2 construct: Recombinant STAT3 protein (STAT3(G127-I722))
In short: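 STAT3(G127-I722), 25 nM, was mixed with 2 nM 5-FAM-GpYLPQTV-NH2 probe in HEPES pH 7.4 buffer with 1% DMSO and serially diluted compound. FP (mP) was read after 45 min at room temperature. IC50 came from nonlinear regression.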

T2 sequence (P40763 127-722): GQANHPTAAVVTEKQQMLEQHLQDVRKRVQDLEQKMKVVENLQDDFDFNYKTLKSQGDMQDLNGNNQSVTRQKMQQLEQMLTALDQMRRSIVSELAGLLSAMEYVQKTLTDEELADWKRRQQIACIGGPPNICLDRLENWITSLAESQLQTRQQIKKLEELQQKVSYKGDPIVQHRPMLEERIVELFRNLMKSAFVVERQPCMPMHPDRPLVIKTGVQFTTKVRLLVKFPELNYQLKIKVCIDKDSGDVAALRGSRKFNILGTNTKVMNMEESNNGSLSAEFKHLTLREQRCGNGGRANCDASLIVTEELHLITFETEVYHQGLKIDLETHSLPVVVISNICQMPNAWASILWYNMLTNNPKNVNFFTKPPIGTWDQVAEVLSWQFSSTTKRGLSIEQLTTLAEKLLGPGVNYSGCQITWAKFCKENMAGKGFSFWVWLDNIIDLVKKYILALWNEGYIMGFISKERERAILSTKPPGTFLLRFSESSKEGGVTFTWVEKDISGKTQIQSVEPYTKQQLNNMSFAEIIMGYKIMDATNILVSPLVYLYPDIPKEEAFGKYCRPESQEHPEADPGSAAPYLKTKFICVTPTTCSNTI

Q: Which IC50 [1] does the source give for `CCCOC(=O)[C@H](C)NP(=O)(Oc1ccccc1)[C@@H](F)c1ccc2ccc(C(=O)N[C@H]3CN(C(=O)c4noc5ccc(C)cc45)CC[C@H]4CC[C@@H](C(=O)N5C[C@@H](c6ccn(C)c(=O)c6)CC56CC6)N4C3=O)cc2c1` (stereo partly drawn) [Compound 420, propyl (((R)-fluoro(7-(((5S,8S,10aR)-8-((R)-6-(1-methyl-2-oxo-1,2-dihydropyridin-4-yl)-4-azaspiro[2.4]heptane-4-carbonyl)-3-(5-methylbenzo [d]isoxazole-3-carbonyl)-6-oxodeca-hydropyrrolo [1,2-a][1,5]diazocin-5-yl)carbamoyl)naphthalen-2-yl)methyl) (phenoxy)phosphoryl)-L-alaninate] here?
A: ≤ 0.1 µM

Q: For `CC(C)(CC(=O)N1CC[C@H]2CC[C@@H](C(=O)N3CC(c4cccnc4)C3)N2C(=O)[C@@H](NC(=O)c2cc3cc(C(F)(F)P(=O)(O)O)ccc3s2)C1)C1CCCCC1` [Compound 269, ((2-(((5S,8S,10aR)-3-(3-cyclohexyl-3-methylbutanoyl)-6-oxo-8-(3-(pyridin-3-yl)azetidine-1-carbonyl)decahydropyrrolo[1,2-a][1,5]diazocin-5-yl)carbamoyl)benzo[b]thiophen-5-yl)difluoromethyl)phosphonic acid], which IC50 [2] is on record?
A: 0.3 to 3 µM

Q: What about the IC50 [3] of the same compound?
A: ≤ 0.1 µM

Q: How did the IC50 [2] turn out when `Cc1ccc2onc(C(=O)N3CC[C@H]4CC[C@@H](C(=O)N5C[C@@H](c6cc[nH]c(=O)c6)CC56CC6)N4C(=O)[C@@H](NC(=O)c4ccc5ccc(C(F)(F)P(=O)(O)O)cc5c4)C3)c2c1` [Compound 385, (difluoro(7-(((5S,8S, 10aR)-3-(5-methyl-benzo[d]isoxazole-3-carbonyl)-6-oxo-8-((R)-6-(2-oxo-1,2-dihydro-pyridin-4-yl)-4-azaspiro [2.4]heptane-4-carbonyl)decahydro-pyrrolo[1,2-a][1,5]diazocin-5-yl)carbamoyl)naphthalen-2-yl)methyl) phosphonic acid] was run?
A: ≤ 0.3 µM

Q: And the IC50 [3]?
A: 1 to 10 µM

Q: `CC(=O)N1CC[C@H]2CC[C@@H](C(=O)N3C[C@H](c4ccccc4)[C@@H](O)C3)N2C(=O)[C@@H](NC(=O)c2cc3cc(C(F)(F)P(=O)(O)O)ccc3s2)C1` (relative stereo) [Compound 60, ((2-(((5S,8S,10aR)-3-acetyl-8-((rel-trans)-3-hydroxy-4-phenylpyrrolidine-1-carbonyl)-6-oxodecahydropyrrolo[1,2-a][1,5]diazocin-5-yl)carbamoyl)benzo[b]thiophen-5-yl)difluoromethyl)phosphonic acid] was tested. Which IC50 [2] did it give?
A: ≤ 0.3 µM

Q: And the IC50 [3]?
A: 1 to 10 µM

Q: What does the source list for `COc1ccc2onc(C(=O)N3CC[C@H]4CC[C@@H](C(=O)N5CCOCC5)N4C(=O)[C@@H](NC(=O)c4ccc5ccc(C(F)P(=O)(O)O)cc5c4)C3)c2c1` (stereo partly drawn) [Compound 362, (fluoro(7-(((5S,8S,10aR)-3-(5-methoxybenzo[d]isoxazole-3-carbonyl)-8-(morpholine-4-carbonyl)-6-oxodecahydropyrrolo [1,2-a][1,5]diazocin-5-yl)carbamoyl)naphthalen-2-yl)methyl)phosphonic acid]?
A: IC50 [2]: ≤ 0.3 µM; IC50 [3]: > 10 µM

Q: With `CC(=O)N1CC(NC(=O)[C@@H]2CC[C@@H]3CCN(C(C)=O)C[C@H](NC(=O)c4cc5cc(C(F)(F)P(=O)(O)O)ccc5[nH]4)C(=O)N32)C1` [Compound 24, ((2-(((5S,8S,10aR)-3-acetyl-8-((1-acetylazetidin-3-yl)carbamoyl)-6-oxodecahydropyrrolo[1,2-a][1,5]diazocin-5-yl)carbamoyl)-1H-indol-5-yl)difluoromethyl)phosphonic acid] as the compound, how does the IC50 [2] read?
A: 0.3 to 3 µM

Q: What about the IC50 [3] of the same compound?
A: 0.1 to 1 µM

Q: For `CCc1ccc2onc(C(=O)N3CC[C@H]4CC[C@@H](C(=O)N5CCOCC56CC6)N4C(=O)[C@@H](NC(=O)c4ccc5ccc(C(F)P(=O)(O)O)cc5c4)C3)c2c1` (stereo partly drawn) [Compound 374, ((7-(((5S,8S,10aR)-3-(5-ethylbenzo[d]isoxazole-3-carbonyl)-6-oxo-8-(7-oxa-4-azaspiro[2.5]octane-4-carbonyl)decahydropyrrolo[1,2-a][1,5]diazocin-5-yl)carbamoyl)naphthalen-2-yl)fluoromethyl) phosphonic acid], which IC50 [2] is on record?
A: ≤ 0.3 µM

Q: What about the IC50 [3] of the same compound?
A: > 10 µM

Q: With `CC(=O)N1CC[C@H]2CC[C@@H](C(=O)N3CC(c4cc(F)cc(F)c4)[C@@H](C#N)C3)N2C(=O)[C@@H](NC(=O)c2cc3cc(C(F)(F)P(=O)(O)O)ccc3s2)C1` (relative stereo) [Compound 142, ((2-(((5S,8S,10aR)-3-acetyl-8-((rel-trans)-3-cyano-4-(3,5-difluorophenyl)pyrrolidine-1-carbonyl)-6-oxodecahydropyrrolo[1,2-a][1,5]diazocin-5-yl)carbamoyl)benzo[b]thiophen-5-yl)difluoromethyl)phosphonic acid] as the compound, how does the IC50 [2] read?
A: ≤ 0.3 µM

Q: And the IC50 [3]?
A: 1 to 10 µM

Q: With `CN(CC(C)(C)C#N)C(=O)[C@@H]1CC[C@@H]2CCN(CC(F)F)C[C@H](NC(=O)c3cc4cc(C(F)(F)P(=O)(O)O)ccc4s3)C(=O)N21` [Compound 264, ((2-(((5S,8S,10aR)-8-((2-cyano-2-methylpropyl)(methyl)carbamoyl)-3-(2,2-difluoroethyl)-6-oxodecahydropyrrolo[1,2-a][1,5]diazocin-5-yl)carbamoyl)benzo[b]thiophen-5-yl)difluoromethyl)phosphonic acid] as the compound, how does the IC50 [2] read?
A: 0.3 to 3 µM

Q: What about the IC50 [3] of the same compound?
A: 1 to 10 µM

Q: What does the source list for `CC(=O)N1CC[C@H]2CC[C@@H](C(=O)N3C[C@H](c4cc[nH]c(=O)c4)[C@@H](C#N)C3)N2C(=O)[C@@H](NC(=O)c2ccc3ccc(C(F)(F)P(=O)(O)O)cc3c2)C1` (single isomer, unassigned) [Compound 38, ((7-(((5S,8S,10aR)-3-acetyl-8-((3R,4S or 3S,4R)-3-cyano-4-(2-oxo-1,2-dihydropyridin-4-yl)pyrrolidine-1-carbonyl)-6-oxodecahydropyrrolo[1,2-a][1,5]diazocin-5-yl)carbamoyl)naphthalen-2-yl)difluoromethyl)phosphonic acid]?
A: IC50 [2]: ≤ 0.3 µM; IC50 [3]: 1 to 10 µM

Q: Which results are given for `CC(=O)N1CC[C@H]2CC[C@@H](C(=O)N3C[C@H](c4ccccc4)[C@@H](C#N)C3)N2C(=O)[C@@H](NC(=O)c2cc3cc(C(F)(F)P(=O)(O)O)ccc3[nH]2)C1` (single isomer, unassigned) [Compound 138, ((2-(((5S,8S,10aR)-3-acetyl-8-((3R,4S or 3S,4R)-3-cyano-4-phenylpyrrolidine-1-carbonyl)-6-oxodecahydropyrrolo[1,2-a][1,5]diazocin-5-yl)carbamoyl)-1H-indol-5-yl)difluoromethyl)phosphonic acid]?
A: IC50 [2]: ≤ 0.3 µM; IC50 [3]: 1 to 10 µM

Q: `O=C(N[C@H]1CN(CC(F)(F)F)CC[C@H]2CC[C@@H](C(=O)N3CC(C(=O)N4CCOCC4)C3)N2C1=O)c1cc2cc(C(F)(F)P(=O)(O)O)ccc2s1` [Compound 277, (difluoro(2-(((5S,8S,10aR)-8-(3-(morpholine-4-carbonyl)azetidine-1-carbonyl)-6-oxo-3-(2,2,2-trifluoroethyl)decahydropyrrolo[1,2-a][1,5]diazocin-5-yl)carbamoyl)benzo[b]thiophen-5-yl)methyl)phosphonic acid] was tested. Which IC50 [2] did it give?
A: 3 to 30 µM

Q: And the IC50 [3]?
A: ≤ 0.1 µM
